Measured values: patent US20250302833A1, “PHARMACEUTICAL COMPOSITION FOR TREATING OR PREVENTING CYSTIC DISEASE” (CHUGAI SEIYAKU KABUSHIKI KAISHA, priority 2022, published 2025)

Key:
Format in all cases: cell-based
[1] = molecular target: T1, human PiT1 (Homo sapiens, UniProt Q8WUM9); assay: 33PO4 uptake inhibition in CHO cells expressing human PiT1; conditions: CHO cells transiently expressing human PiT1, pH 6.5
T1 construct: expressed in transfected cells; host or cells: CHO cells, transient transfection with Fugene HD
T1 sequence (Q8WUM9 1-679): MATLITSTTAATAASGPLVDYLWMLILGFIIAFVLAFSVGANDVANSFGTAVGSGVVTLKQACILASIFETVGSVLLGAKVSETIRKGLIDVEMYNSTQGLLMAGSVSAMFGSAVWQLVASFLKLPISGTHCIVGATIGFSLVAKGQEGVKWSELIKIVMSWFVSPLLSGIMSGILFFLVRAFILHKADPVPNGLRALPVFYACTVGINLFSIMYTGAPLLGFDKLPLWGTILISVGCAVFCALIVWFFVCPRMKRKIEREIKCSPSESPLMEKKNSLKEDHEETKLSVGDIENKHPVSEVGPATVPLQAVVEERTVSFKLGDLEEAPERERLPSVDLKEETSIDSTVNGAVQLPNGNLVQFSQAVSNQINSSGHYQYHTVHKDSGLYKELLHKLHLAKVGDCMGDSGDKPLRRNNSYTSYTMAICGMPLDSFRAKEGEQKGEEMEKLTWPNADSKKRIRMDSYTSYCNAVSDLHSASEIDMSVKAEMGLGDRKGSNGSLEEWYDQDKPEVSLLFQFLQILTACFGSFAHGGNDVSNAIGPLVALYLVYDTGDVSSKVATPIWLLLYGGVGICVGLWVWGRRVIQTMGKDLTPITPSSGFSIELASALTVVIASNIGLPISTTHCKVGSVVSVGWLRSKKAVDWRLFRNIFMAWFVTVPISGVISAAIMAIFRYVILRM
Method: (§1) For transient expression, human NaPi-IIb expression plasmids, human PiT1 expression plasmids, human PiT2 expression plasmids, and Fugene HD Transfection (Promega Corporation) were added to CHO cells using a 96-well plate, and the plate was incubated in a C02 incubator for 16 hours. The medium was replaced with buffer A (145 mM choline chloride, 3 mM KCl, 1 mM CaCl2), 0.5 mM MgCl2, 5 mM glucose, 5 mM MES, (pH 6.5)), and then replaced with buffer B (145 mM NaCl, 3 mM KCl, 1 mM CaCl2, 0.5 mM MgCl2, 5 mM glucose, 5 mM MES (pH 6.5)) to which a test compound was added at the final concentration of 0.01, 0.03, 0.1, 0.3, 1, 3, 10, or 30 μM, buffer A to which DMSO was added, or buffer B to which DMSO was added. After a certain time, a 1/20 amount of buffer A containing ^33PO4 (PerkinElmer Japan G. K.) was added and reacted at room temperature. After washing with ice-cooled buffer A, a liquid scintillator (MicroScint™-20, item number 6013621, PerkinElmer Japan G.K.) was added, and the ^33PO4 uptake amount was measured with the top count (Top Count NXT, PerkinElmer Japan G.K.). The inhibition rate was determined by the following formula. Here, a certain time was set to 10 minutes. […]

[2] = molecular target: T2, human NaPi-IIb (Homo sapiens, UniProt O95436); assay: 33PO4 uptake inhibition in CHO cells expressing human NaPi-IIb; conditions: CHO cells transiently expressing human NaPi-IIb, pH 6.5
T2 construct: expressed in transfected cells; host or cells: CHO cells, transient transfection with Fugene HD
T2 sequence (O95436 1-690): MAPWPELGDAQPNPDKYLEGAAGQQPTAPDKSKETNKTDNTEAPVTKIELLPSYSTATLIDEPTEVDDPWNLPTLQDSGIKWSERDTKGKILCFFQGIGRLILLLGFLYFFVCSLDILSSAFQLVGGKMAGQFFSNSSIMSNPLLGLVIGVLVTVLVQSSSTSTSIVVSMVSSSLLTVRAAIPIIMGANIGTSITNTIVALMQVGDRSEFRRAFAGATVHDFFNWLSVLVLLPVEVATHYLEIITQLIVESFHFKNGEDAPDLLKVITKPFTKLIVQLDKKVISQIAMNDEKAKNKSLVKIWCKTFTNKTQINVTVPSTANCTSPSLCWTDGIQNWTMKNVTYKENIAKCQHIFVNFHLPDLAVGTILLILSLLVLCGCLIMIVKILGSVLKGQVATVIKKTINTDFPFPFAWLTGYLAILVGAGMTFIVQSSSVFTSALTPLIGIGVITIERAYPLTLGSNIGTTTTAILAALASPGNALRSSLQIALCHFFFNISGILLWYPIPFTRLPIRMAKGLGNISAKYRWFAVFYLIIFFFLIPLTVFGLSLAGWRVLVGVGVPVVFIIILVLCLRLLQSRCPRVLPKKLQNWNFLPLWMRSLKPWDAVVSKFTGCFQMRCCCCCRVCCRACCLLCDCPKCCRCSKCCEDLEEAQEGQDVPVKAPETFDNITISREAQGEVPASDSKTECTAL
Method: For transient expression, human NaPi-IIb expression plasmids, human PiT1 expression plasmids, human PiT2 expression plasmids, and Fugene HD Transfection (Promega Corporation) were added to CHO cells using a 96-well plate, and the plate was incubated in a C02 incubator for 16 hours. The medium was replaced with buffer A (145 mM choline chloride, 3 mM KCl, 1 mM CaCl2), 0.5 mM MgCl2, 5 mM glucose, 5 mM MES, (pH 6.5)), and then replaced with buffer B (145 mM NaCl, 3 mM KCl, 1 mM CaCl2, 0.5 mM MgCl2, 5 mM glucose, 5 mM MES (pH 6.5)) to which a test compound was added at the final concentration of 0.01, 0.03, 0.1, 0.3, 1, 3, 10, or 30 μM, buffer A to which DMSO was added, or buffer B to which DMSO was added. After a certain time, a 1/20 amount of buffer A containing ^33PO4 (PerkinElmer Japan G. K.) was added and reacted at room temperature. After washing with ice-cooled buffer A, a liquid scintillator (MicroScint™-20, item number 6013621, PerkinElmer Japan G.K.) was added, and the ^33PO4 uptake amount was measured with the top count (Top Count NXT, PerkinElmer Japan G.K.). The inhibition rate was determined by the following formula. Here, a certain time was set to 10 minutes. The phrase “a 1/20 amount of buffer A containing ^33PO4 (PerkinElmer Japan G.K.) was added” refers to “buffer A containing ^33PO4 (PerkinElmer Japan G.K.) was added in an amount of 1/20 of the amount of solution filling the medium”.
The 50% ^33PO4-uptake inhibition concentrations (ICs) (UM) in a cell expressing human NaPi-Ilb, human PiT1, and human PiT2 were calculated from a straight line through two points sandwiching 50% inhibition rate. It should be noted that compounds 1 and 2 were not measured for baman PiT1 and human PiT2, which was indicated as “-” in Table 1.

[3] = molecular target: T3, human PiT2 (Homo sapiens, UniProt Q08357); assay: 33PO4 uptake inhibition in CHO cells expressing human PiT2; conditions: CHO cells transiently expressing human PiT2, pH 6.5
T3 construct: expressed in transfected cells; host or cells: CHO cells, transient transfection with Fugene HD
T3 sequence (Q08357 1-652): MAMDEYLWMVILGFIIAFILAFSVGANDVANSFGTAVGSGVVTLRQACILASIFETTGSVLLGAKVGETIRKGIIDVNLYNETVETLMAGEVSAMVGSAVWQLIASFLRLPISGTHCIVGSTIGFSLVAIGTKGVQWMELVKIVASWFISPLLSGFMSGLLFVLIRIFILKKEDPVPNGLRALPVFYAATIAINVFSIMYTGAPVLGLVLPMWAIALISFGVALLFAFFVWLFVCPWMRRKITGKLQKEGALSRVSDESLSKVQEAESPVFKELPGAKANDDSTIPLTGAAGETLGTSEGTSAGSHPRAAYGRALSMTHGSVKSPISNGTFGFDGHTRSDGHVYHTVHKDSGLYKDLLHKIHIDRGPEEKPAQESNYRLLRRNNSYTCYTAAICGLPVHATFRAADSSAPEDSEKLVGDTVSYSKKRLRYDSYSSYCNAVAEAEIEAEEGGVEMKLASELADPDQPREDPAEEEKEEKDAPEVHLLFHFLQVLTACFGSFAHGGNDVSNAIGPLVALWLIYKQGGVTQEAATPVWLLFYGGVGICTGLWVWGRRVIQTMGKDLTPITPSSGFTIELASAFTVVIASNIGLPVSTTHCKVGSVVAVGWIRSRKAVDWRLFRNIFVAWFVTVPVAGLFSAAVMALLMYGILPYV
Method: as §1

- IC50 [1]: > 30 µM
- IC50 [2]: 0.031 µM
- IC50 [3]: > 30 µM
SMILES: CCCN([C@H]1CC[C@H](C(=O)[O-])CC1)S(=O)(=O)c1cccc(C(=O)Nc2sc3c(c2C(=O)Nc2ccc(CCCc4ccc(C(=O)[O-])cc4)cc2)CCCC3)c1.[Na+].[Na+] [Compound 4, Disodium; 4-[3-[4-[[2-[[3-[(4-carboxylatocyclohexyl)-propylsulfamoyl]benzoyl]ami-no]-4,5,6,7-tetrahydro-1-benzothiophene-3-carbonyl]amino]phenyl]pro-pyl]benzoic acid]
